Measurements reported in US10487088B2, “Tricyclic compound serving as immunomodulator” (Chia Tai Tianqing Pharmaceutical Group Co., Ltd., priority 2016, dated 2019).

Key:
[1] = target: T1, recombinant human IDO1 enzyme (Homo sapiens, UniProt P14902); experiment: In vitro hIDO1 enzyme activity test (NFK Green fluorescence); type: biochemical; conditions: recombinant human IDO1, L-tryptophan substrate, pH 6.5
T1 construct: purchased NTRC NTRC-hlDO-10K
Protocol: The change of NFK production was detected by using the NFK Green™ fluorescent molecule, which is the metabolite of the IDO1 enzyme, and the IC50 value of the compound was used as an index, to evaluate the inhibitory effect of the compound on the recombinant human IDO1 enzyme.
IDO1 Enzyme Activity Assay Kit, NTRC # NTRC-hlDO-10K;
The compound was diluted to 1 mM in DMSO, and then diluted 3-fold in duplicate wells, with 10 gradients. 48 μL of 50 mM phosphate buffer (pH 6.5) was transferred to the compound plate via Bravo automated liquid handling platform. 2 μL of the diluted solution of the compound in DMSO was then added and mixed, followed by transferring 10 μL therein to an enzyme reaction plate.
The IDO1 enzyme was diluted to 20 nM in the reaction buffer (50 mM phosphate buffer pH 6.5, 0.1% Tween-20, 2% glycerol, 20 mM ascorbic acid, 20 μg/mL catalase and 20 μM methylene blue), and 20 μL of the solution was transferred to an enzyme reaction plate and incubated at 23° C. for 30 min. The reaction was started by adding 10 μL of 400 μM L-type tryptophan substrate and incubated at 23° C. for 90 min. 10 μL of NFK Green™ fluorescent dye was added, and the plate was sealed with the sealing film, incubated at 37° C. for 4 h, and then read on Envision Multimode Plate Reader (Ex 400 nm/Em 510 nm).
The control wells with the IDO1 enzyme but no compound was set as 0% inhibition, and the control wells without the IDO1 enzyme was set as 100% inhibition, and the IC50 value of the compound was calculated by analyzing the data with XLFit 5.

[2] = target: T2, IDO1 enzyme in Hela cells (Homo sapiens, UniProt P14902); experiment: hIDO1 cytological activity assay (kynurenine in Hela cells by LC-MS); type: cell-based; conditions: Hela cells induced with 100 ng/mL recombinant human γ-interferon, 20 h, read-out: IC50 hIDO1 Cytoactive
T2 construct: recombinant human γ-interferon was added at a final concentration of 100 ng/mL to induce IDO1 expression; endogenous in cells; host or cells: Hela cells, induced with recombinant human γ-interferon
Protocol: The change of kynurenine in Hela cells was detected by the LC-MS method, and the IC50 value of the compound was used as an index, to evaluate the inhibitory effect of the compound on IDO1 enzyme.
A medium, trypsin and DPBS were pre-heated in a 37° C. water bath. The medium for cell culture was sucked out and washed with 10 mL of DPBS; then the pre-heated trypsin was added into the culture flask, and the flask was rotated to allow the trypsin to uniformly cover it, and then placed in a 37° C., 5% CO2 incubator and digested for 1-2 min; in each T150, cells were dispersed with 10-15 mL of medium, centrifuged at 800 rpm for 5 min, and then resuspended in 10 mL of medium; 1 mL of cell suspension was pipetted and the cells were counted with Vi-cell; Hela cells were diluted with medium to 5×10^5/mL, 80 μL of the solution was added to a 96-cell plate, and cultured at 37° C. for 5-6 h in a 5% CO2 incubator.
The compound was diluted to 1 mM in DMSO, and then diluted 3-fold in duplicate wells, with 9 gradients. 5 μL of the diluted solution of the compound in DMSO was added to the compound plate containing 95 μL of the medium, and mixed, followed by transferring 10 μL of the mixture to a cell plate.
10 μL of recombinant human γ-interferon was added at a final concentration of 100 ng/mL to induce IDO1 expression. The cells were incubated at 37° C. for 20 h in a 5% CO2 incubator. 4 μL of 5% (w/v) trichloroacetic acid was added thereto, mixed and incubated at 50° C. for 30 min. After centrifugation at 2400 rpm for 10 min, 40 μL of the supernatant was taken and placed in a 96-well V-bottom plate, and then a precipitant was added in the plate. After mixing, the mixture was centrifuged at 4000 rpm for 10 min. 100 μL of the supernatant was transferred to a new 96-well V-bottom plate. The content of kynurenine was determined by LC-MS.
The control wells having γ-interferon but no compound was set as 0% inhibition, and the control wells without Hela cell was set as 100% inhibition, and the IC50 value of the compound was calculated by analyzing the data with XLFit 5.

T1 sequence (P14902 whole entry): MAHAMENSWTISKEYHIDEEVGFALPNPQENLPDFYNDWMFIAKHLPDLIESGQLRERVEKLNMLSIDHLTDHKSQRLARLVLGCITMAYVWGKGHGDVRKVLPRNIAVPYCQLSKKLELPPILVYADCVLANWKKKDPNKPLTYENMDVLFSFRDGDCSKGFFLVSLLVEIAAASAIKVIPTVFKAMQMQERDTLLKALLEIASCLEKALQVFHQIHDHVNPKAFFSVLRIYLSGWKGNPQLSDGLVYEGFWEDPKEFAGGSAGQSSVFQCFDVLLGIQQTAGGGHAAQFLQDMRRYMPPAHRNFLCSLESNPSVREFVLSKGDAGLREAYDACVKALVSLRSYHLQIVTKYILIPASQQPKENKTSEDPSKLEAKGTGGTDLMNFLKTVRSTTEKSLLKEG
T2 sequence (P14902 whole entry): as above

Compound | IC50 [1] [nM] | IC50 [2] [nM]
c1cc2c(s1)C(CCC1CCCCC1)n1cncc1-2 (single isomer, unassigned) [Example 10, 8-(2-cyclohexyl)-8H-thieno[3,4]pyrrolo[1,5-a]imidazole] | > 10000 | > 5000
O[C@@H](C[C@@H]1c2sccc2-c2cncn21)C1CCOCC1 (single isomer, unassigned) [Example 28] | > 10000 | > 5000
FC1(F)[C@@H]2C[C@@H](C3c4sccc4-c4cncn43)C[C@@H]21 (single isomer, unassigned) [Example 63, 8-[6,6-difluoro-3-bicyclo[3.1.0]cyclohexyl]-8H-thieno[3,4]pyrrolo[1,5-a]imidazole (trans)] | 8800 | > 5000
c1cc2c(s1)C(C1CCCCCC1)n1cncc1-2 (single isomer, unassigned) [Example 73, 8-cycloheptyl-8H-thieno[3,4]pyrrolo[1,5-a]imidazole] | > 10000 | > 5000
O[C@@H]1CCCC1[C@H]1c2sccc2-c2cncn21 (single isomer, unassigned) [Example 110, (trans)-2-(8H-thieno[3′,2′:3,4]pyrrolo[1,2-c]imidazol-8-yl)cyclopentanol] | > 10000 | –
OC1CCC(C2c3sccc3-c3cncn32)CC1 (single isomer, unassigned) [Example 115, 4-(8H-thieno[3,4]pyrrolo[1,5-a]imidazol-8-yl)-cyclohexanol] | 3510 | –
OC1CCC(C2c3sccc3-c3cncn32)CC1 (single isomer, unassigned) [Example 116, 4-(8H-thieno[3,4]pyrrolo[1,5-a]imidazol-8-yl)-cyclohexanol] | > 10000 | –
OC1CCC(C2c3sccc3-c3cncn32)CC1 (single isomer, unassigned) [Example 118, 4-(8H-thieno[3,4]pyrrolo[1,5-a]imidazol-8-yl)-cyclohexanol] | 7290 | –
CC(C)(C(O)C1CCCCC1)C1c2sccc2-c2cncn21 (single isomer, unassigned) [Example 120, 1-cyclohexyl-2-methyl-2-(8H-thieno[3,4]pyrrolo[1,5-a]imidazol-8-yl)-propan-1-ol] | > 10000 | –
CC(C)(C(O)C1CCCCC1)C1c2sccc2-c2cncn21 (single isomer, unassigned) [Example 122, 1-cyclohexyl-2-methyl-2-(8H-thieno[3,4]pyrrolo[1,5-a]imidazol-8-yl)-propan-1-ol] | > 10000 | –
OCCC1c2sccc2-c2cncn21 (stereo not shown) [Example 11, 2-(8H-thieno[3′,2′:3,4]pyrrolo[1,2-c]imidazol-8-yl)ethanol] | 5980 | –
CC(C)(C)C1c2sccc2-c2cncn21 (stereo not shown) [Example 23, 8-(tert-butyl)-8H-thieno[3′,2′:3,4]pyrrolo[1,2-c]imidazole] | 5260 | –
CC(C)C1c2sccc2-c2cncn21 (stereo not shown) [Example 25, 8-isopropyl-8H-thieno[3,4]pyrrolo[1,5-a]imidazole] | 8120 | –
c1cc2c(s1)C(CCN1CCOCC1)n1cncc1-2 (stereo not shown) [Example 30] | > 10000 | –
c1cc2c(s1)C(CCN1CCCCC1)n1cncc1-2 (stereo not shown) [Example 31, 8-(2-(piperidin-1-yl)ethyl)-8H-thieno[3′,2′:3,4]pyrrolo[1,2-c]imidazole] | > 10000 | –
c1ccc2c(C3CCC(C4c5sccc5-c5nccn54)CC3)ccnc2c1 (stereo not shown) [Example 96, 5-(4-(quinolin-4-yl)cyclohexyl)-5H-thieno[3′,2′:3,4]pyrrolo[1,2-a]imidazole] | > 10000 | –

These reach a lower IC50 [1]. Values come first.

IC50 [1] [nM] | IC50 [2] [nM] | Compound
1680 | – | O[C@@H](C[C@@H]1c2sccc2-c2cncn21)C1CCC(F)(F)CC1 [Example 47, (1S)-1-(4,4-difluorocyclohexyl)-2-((R)-8H-thieno[3,4]pyrrolo[1,5-a]imidazol-8-yl)ethanol]
1030 | – | CC(C)CC1c2sccc2-c2cncn21 (stereo not shown) [Example 24, 8-isobutyl-8H-thieno[3′,2′:3,4]pyrrolo[1,2-c]imidazole]
807 | – | c1cc2c(s1)C(C1CCC1)n1cncc1-2 (stereo not shown) [Example 32, 8-cyclobutyl-8-hydro-thieno[3,4]pyrrolo[1,5-a]imidazole]
585 | – | CC(C)(C(O)C1CCCCC1)C1c2sccc2-c2cncn21 (single isomer, unassigned) [Example 121, 1-cyclohexyl-2-methyl-2-(8H-thieno[3,4]pyrrolo[1,5-a]imidazol-8-yl)-propan-1-ol]
253 | 779 | OCC1(C2c3sccc3-c3cncn32)CCCCC1 (single isomer, unassigned) [Example 42, [1-(8H-thieno[3,4]pyrrolo[1,5-a]imidazol-8-yl)cyclohexyl]methanol]
199 | 446 | FC1(F)[C@@H]2C[C@@H](C3c4sccc4-c4cncn43)C[C@@H]21 (single isomer, unassigned) [Example 62, 8-[6,6-difluoro-3-bicyclo[3.1.0]cyclohexyl]-8H-thieno[3,4]pyrrolo[1,5-a]imidazole (trans)]
161 | 377 | OC1CCCCC1C1c2sccc2-c2cncn21 (single isomer, unassigned) [Example 53, 2-(8H-thieno[3,4]pyrrolo[1,5-a]imidazol-8-yl)cyclohexanol]
106 | – | OC(CC1c2cscc2-c2cncn21)C1CCCCC1 (stereo not shown) [Example 12, 1-cyclohexyl-2-(5H-thieno[3′,4′:3,4]pyrrolo[1,2-c]imidazol-5-yl)ethanol]
99.9 | 223 | c1cc2c(s1)C(C1CCCCCC1)n1cncc1-2 (single isomer, unassigned) [Example 72, 8-cycloheptyl-8H-thieno[3,4]pyrrolo[1,5-a]imidazole]
71 | 911 | c1cc2c(s1)C(CC1CCCCC1)n1cncc1-2 (single isomer, unassigned) [Example 16, 8-(cyclohexylmethyl)-8H-thieno[3,4]pyrrolo[1,5-a]imidazole]
65.9 | 220 | c1cc2c(s1)C(C1CCCCC1)n1cncc1-2 (single isomer, unassigned) [Example 14, 8-cyclohexyl-8H-thieno[3,4]pyrrolo[1,5-a]imidazole]
55 | 17.5 | c1cc2c(s1)C(CCC1CCCCC1)n1cncc1-2 (single isomer, unassigned) [Example 9, 8-(2-cyclohexyl)-8H-thieno[3,4]pyrrolo[1,5-a]imidazole]
51.6 | 117 | O[C@@H](C[C@H]1c2sccc2-c2cncn21)C1CCOCC1 (single isomer, unassigned) [Example 29]
48 | 74.9 | FC1(F)CCC([C@H]2c3sccc3-c3cncn32)CC1 (single isomer, unassigned) [Example 41]
37 | 125 | FC1(F)C2CC(C3c4sccc4-c4cncn43)CC21 (single isomer, unassigned) [Example 77, 8-(6,6-difluoro-3-bicyclo[3.1.0]cyclohexyl)-8H-thieno[3,4]pyrrolo[1,5-a]imidazole (cis)]
27.2 | 159 | OC1CCCCC1C1c2sccc2-c2cncn21 (single isomer, unassigned) [Example 85]
23.1 | 212 | FC1(F)CCC(CCC2c3sccc3-c3cncn32)CC1 (single isomer, unassigned) [Example 22, 8-(2-(4,4-difluorocyclohexyl)ethyl)-8H-thieno[3′,2′:3,4]pyrrolo[1,2-c]imidazole]
